Measured values: US20020107302A1, “Monomeric dye inkjet printing ink formulations for invisible marking / identification” (priority 2000, published 2002)

Assay: Solubility or dispersibility of monomeric dye in vehicle systems
[1] = 50/50 acetone/water, 600 ppm dye
[2] = Methyl ethyl ketone, 600 ppm dye
[3] = Water with 1% ammonium hydroxide, 600 ppm dye
[4] = Water, 0.06% (by weight) or 600 ppm dye

SMILES	Solubility or Dispersibility [1]	Solubility or Dispersibility (Acetone, 600 ppm dye)	Solubility or Dispersibility (Ethanol, 600 ppm dye)	Solubility or Dispersibility (Ethyl acetate, 600 ppm dye)	Solubility or Dispersibility (Methyl acetate, 600 ppm dye)	Solubility or Dispersibility [2]	Solubility or Dispersibility (Propylene glycol, 600 ppm dye)	Solubility or Dispersibility [3]	Solubility or Dispersibility [4]
COC(=O)c1cc([O][Al]2[n]3c4c5ccccc5c3/N=C3N=C(/N=c5/c6ccccc6/c([n]52)=N/C2=NC(=N\4)/c4ccccc42)c2ccccc2\3)cc(C(=O)OC)c1 [Dye II, Aluminum phthalocyanine(3,5-dicarbo-methoxyphenoxide)]	Partially Soluble	Partially Soluble	Soluble	Partially Soluble	Insoluble	Partially Soluble	Soluble	Insoluble	Insoluble
CCCCC(CC)COC(=O)c1ccc(Oc2cccc3c2-c2nc-3nc3[nH]c(nc4nc(nc5[nH]c(n2)c2cccc(Oc6ccc(C(=O)OCC(CC)CCCC)cc6)c52)-c2cccc(Oc5ccc(C(=O)OCC(CC)CCCC)cc5)c2-4)c2cccc(Oc4ccc(C(=O)OCC(CC)CCCC)cc4)c32)cc1 [Dye III, 1(4),8(11),15(18),22(2S)-tetraks((4-(2-ethylhexoxy)carbonyl)phenoxy)phthalocyanine]	Insoluble	Partially Soluble	Insoluble	Soluble	Soluble	Partially Soluble	Insoluble	Insoluble	Insoluble
CN1C(=CC=CC=CC=CC2=[N+](C)c3ccc4ccccc4c3C2(C)C)C(C)(C)c2c1ccc1ccccc21.[O-][Cl+3]([O-])([O-])[O-] [Dye IV, 1,1,3,3,3,3-Hexamethyl-4,4,5,5-dibenzo-2,2-indotricarbocyanine perchlorate]	Soluble	Soluble	Soluble	Soluble	Soluble	Soluble	Soluble	Insoluble	Insoluble
CCN1C(=CCC2CCC(C=CC3Sc4ccc(Cl)cc4N3CC)=C2N(c2ccccc2)c2ccccc2)Sc2ccc(Cl)cc21 (centres unmarked) [Dye V, 5,5-Dichloro-11-(diphenylamino)-3,3-diethyl-10,12-ethylenethiatri-carbocyanine perchlorate]	Soluble	Soluble	Soluble	Insoluble	Partially Soluble	Soluble	–	Insoluble	Insoluble
